Common to all, as to format: in vivo
Assay [1] concerns respiratory epithelium. Nature of the assay: LNP protein expression in rat after single dose of mRNA-LNP by intratracheal delivery (anti-V5 IHC). The settings on record: intratracheal instillation, ~1.2 mpk, NPI-Luc mRNA, core with β-sitosterol for SA23. As to the method:
Animals are anesthetized under isoflurane. The tongue is displaced and a small diameter cannula is inserted into the trachea (oropharyngeal route). The cannula tip is passed through the vocal chords, down the trachea so that the tip is very near, but not touching, the carina. Upon placement, 50 μL (mouse) or 200 μL (rat) of formulation is infused into the lungs. After 30 seconds upright, animals are released into a recovery cage and returned to their respective cages once recovered. Trachea, lungs and for the aerosol study nasal cavities, nasopharynx and larynx are collected for analysis. Lungs are inflated with 10% NBF fixative and trachea tied off to maintain inflation. Lungs are removed en bloc with attached trachea, bronchi and lobes. Whole lungs en bloc are fixed in 10% NBF at room temperature for at least 24 hours with a maximum of 48 hours and then removed from fixative and placed in PBS. Samples are immediately sent to be processed for paraffin 5-micron sections and H&E staining. IHC was performed on FFPE sections using the Leica Bond RX autostainer. […] Images were imaged at 20× magnification with the Panoramic 250 Flash III whole slide scanner. Image analysis was completed with Indica Labs HALO image analysis software. […] LNPs were prepared according to Example 2 using NPI-Luc as the mRNA construct. […] LNP protein expression in respiratory epithelium was evaluated according to sample collection and assay procedures A and B. The results are shown in Table 13b.

In assay [2] the test system is respiratory epithelium. Nature of the assay: LNP protein expression in mouse after single dose of mRNA-LNP by intratracheal delivery (anti-V5 IHC). The settings on record: intratracheal instillation, ~0.7 mpk, NPI-Luc mRNA, core with β-sitosterol for SA23, SA31. As for the experimental part:
Animals are anesthetized under isoflurane. The tongue is displaced and a small diameter cannula is inserted into the trachea (oropharyngeal route). The cannula tip is passed through the vocal chords, down the trachea so that the tip is very near, but not touching, the carina. Upon placement, 50 μL (mouse) or 200 μL (rat) of formulation is infused into the lungs. After 30 seconds upright, animals are released into a recovery cage and returned to their respective cages once recovered. Trachea, lungs and for the aerosol study nasal cavities, nasopharynx and larynx are collected for analysis. Lungs are inflated with 10% NBF fixative and trachea tied off to maintain inflation. Lungs are removed en bloc with attached trachea, bronchi and lobes. Whole lungs en bloc are fixed in 10% NBF at room temperature for at least 24 hours with a maximum of 48 hours and then removed from fixative and placed in PBS. Samples are immediately sent to be processed for paraffin 5-micron sections and H&E staining. IHC was performed on FFPE sections using the Leica Bond RX autostainer. […] Images were imaged at 20× magnification with the Panoramic 250 Flash III whole slide scanner. Image analysis was completed with Indica Labs HALO image analysis software. […] LNPs were prepared according to Example 2 using NPI-Luc as the mRNA construct. LNPs were delivered to mice by intratracheal instillation for a dose of ˜0.7 mpk. LNP protein expression in respiratory epithelium was evaluated according to sample collection and assay procedures A and B. The results are shown in Table 13a.

The test system of assay [3] is respiratory epithelium. The assay is described as follows: LNP protein expression in rat after single dose of mRNA-LNP by nose-only aerosol delivery (anti-V5 IHC). The settings on record: LNP per Example 8. From the text:
Aerosol is generated using a vibrating mesh nebulizer and a defined inlet air flow rate. Aerosol is introduced into the rodent nose-only directed flow exposure chamber by first passing through a mixing chamber before flowing into the exposure tier. Animals are exposed to fresh aerosol at each nose port, which is then exhausted out of the system.
Animals were trained to the nose-only dosing cones for three days prior to initiation of the study. On study day, animals were placed into the dosing cones that were then attached to the aerosol exposure chamber for designated exposure times of 60, 120 or 240 minutes per group for lung doses of 0.4, 0.6 and 1.1 mpk. Animals were monitored continuously throughout the entire exposure and subsequently for any observable adverse reactions. Aerosol concentration (mRNA) and aerodynamic particle size distribution were monitored at the dosing port before and after each dosing occasion to evaluate achieved dose levels and respirable aerosol particle size targets (1-4 μm for rat) respectively.
Trachea, lungs and for the aerosol study nasal cavities, nasopharynx and larynx are collected for analysis. Lungs are inflated with 10% NBF fixative and trachea tied off to maintain inflation. Lungs are removed en bloc with attached trachea, bronchi and lobes. Whole lungs en bloc are fixed in 10% NBF at room temperature for at least 24 hours with a maximum of 48 hours and then removed from fixative and placed in PBS. Samples are immediately sent to be processed for paraffin 5-micron sections and H&E staining.
For the aerosol study, nasal cavities, nasopharynx and larynx were also collected in addition to trachea and lungs.
IHC was performed on FFPE sections using the Leica Bond RX autostainer. NPI-Luc protein expression was detected by anti-V5 tag antibody at a 1:100 dilution. V5 antibody was detected with the Bond Polymer Refine Detection kit followed by hematoxylin and bluing reagent counterstain. Images were imaged at 20× magnification with the Panoramic 250 Flash III whole slide scanner. Image analysis was completed with Indica Labs HALO image analysis software. Trachea, lung and/or nasal cavity images were analyzed to capture total tracheal, bronchial or nasal epithelial cells and data expressed when appropriate as p % V5 positive epithelial cells per total epithelial cells per animal.
LNPs were prepared according to Example 8 using NPI-Luc as the mRNA construct. LNPs were delivered to rats by aerosol delivery using a nose-only aerosol dosing system. LNP protein expression in respiratory epithelium was evaluated according to sample collection and assay procedures A and B. The results are shown in Table 13c. Respiratory epithelium in the nasal cavity, trachea and bronchi were positive for protein expression after aerosol delivery of LNPs.

The structures appear in SMILES notation. Structures can show the parent of a compound that is named as a salt.

For `CC(C)CCC[C@@H](C)[C@H]1CC[C@H]2[C@@H]3CC=C4C[C@@H](OC(=O)N(CCCN)CCCCNCCCN)CC[C@]4(C)[C@H]3CC[C@]12C` [SA3, (3S,8S,9S,10R,13R,14S,17R)-10,13-dimethyl-17-((R)-6-methylheptan-2-yl)-2,3,4,7,8,9,10,11,12,13,14,15,16,17-tetradecahydro-1H-cyclopenta[a]phenanthren-3-yl (3-aminopropyl)(4-((3-aminopropyl)amino)butyl)carbamate, trihydrochloride salt], the “Average % V5 positive cells/total cells” value is on record as 4.95% in the assay with respiratory epithelium [1] (Rat Bronchi (left and right lung)); 2.97% in the assay on respiratory epithelium [1] (Rat Trachea); 9.33% in the assay on respiratory epithelium [2] (Mouse Bronchi (left lung)); 40.7% in the assay with respiratory epithelium [2] (Mouse Trachea); 0.13% in the assay with respiratory epithelium [3] (Rat Bronchi (left and right lung), lung dose 0.4 mpk); 0.13% with respiratory epithelium [3] (Rat Bronchi (left and right lung), lung dose 0.6 mpk). Moreover, the “Average % V5 positive cells/total cells” value in the assay on respiratory epithelium [3] (Rat Bronchi (left and right lung), lung dose 1.1 mpk) was 0.46%; in the assay with respiratory epithelium [3] (Rat Nasal Cavity, lung dose 0.4 mpk), 0.64%; in the assay with respiratory epithelium [3] (Rat Nasal Cavity, lung dose 0.6 mpk), 1.20%; in the assay on respiratory epithelium [3] (Rat Nasal Cavity, lung dose 1.1 mpk), 2.84%; with respiratory epithelium [3] (Rat Trachea, lung dose 0.4 mpk), 0.29%; in the assay on respiratory epithelium [3] (Rat Trachea, lung dose 0.6 mpk), 0.16%. In addition, the “Average % V5 positive cells/total cells” value with respiratory epithelium [3] (Rat Trachea, lung dose 1.1 mpk) turned out to be 0.65%.
